Holding throughout (assay type): biochemical
One assay concerns the target T1, full-length human PHD1 (Homo sapiens, UniProt Q96KS0).
T1 construct: expressed in a baculovirus expression system as the full-length protein; FLAG (N); purchased Active Motif 81064; host or cells: baculovirus expression system
The experiment in a line: TR-FRET assay, PHD1 enzymatic IC50. The settings on record: 15 nM PHD1, 1 μM 2-OG. An excerpt: (§1) In the presence of 2-oxoglutarate and O2, PHD enzyme hydroxylates proline 564 of biotin-tagged HIF-1α peptide resulting in generation of biotin-tagged HIF-1α-hydroxyproline, succinate and CO2. The resulting proximity of the donor fluorophore complex, monoclonal antibody anti-6His-Terbium (Tb)-cryptate Gold, bound to the His-tagged VHL protein, EloB, EloC complex (His-VBC) and the acceptor fluorophore, SA-D2 complex, bound to HIF-1α-hydroxyproline results in a fluorescence resonance energy transfer signal that can be detected and quantified
(§2) Time-resolved fluorescence resonance energy transfer (TR-FRET) assay was utilized to determine the enzymatic half maximal inhibitory concentration (IC50) value of PHD inhibitors against the full-length human prolyl-4-hydroxylase domain (PHD) enzymes, PHD1, PHD2, and PHD3. The TR-FRET assay was developed based on the specific binding of hydroxylated HIF-1α peptide with the complex formed by VHL, EloB and EloC (VBC), to generate a fluorescent signal. Terbium (Tb)-Donor (monoclonal antibody anti-6His-Tb-cryptate Gold) and D2-acceptor (streptavidin [SA]-D2) of TR-FRET are linked to the VBC complex and to HIF-1α peptide, respectively. The VBC complex binds specifically to the HIF-1α peptide when it is hydroxylated, allowing energy transfer from TR-FRET donor to acceptor (FIG. 1).
Recombinant human PHD1 protein (catalog #81064, Lot #24717001) was purchased from Active Motif (Carlsbad, Calif., USA). PHD1 was expressed in a baculovirus expression system as the full-length protein (NCBI accession number NP_542770.2) with an N-terminal FLAG tag (molecular weight 44.9 kDa). Purity (>90%) was assessed by SDS-PAGE.
(§3) PHD inhibitor compound was preincubated with PHD enzyme in a 10 μL reaction volume in white 384-well Optiplate microplates (catalog #6007290, Perkin Elmer, Waltham, Mass., USA). For this, 5 μL PHD inhibitor compound was serially diluted with dilution buffer (50 mM HEPES [4-(2-hydroxyethyl)-1-piperazineethanesulfonic acid] pH 7.5, 50 mM sodium chloride [NaCl], 0.01% Tween-20, 0.01% purified bovine serum albumin [BSA]) and mixed with 5 μL PHD enzyme mix prepared as a 4× concentrate in the dilution buffer containing PHD enzyme (60 nM PHD1, 20 nM PHD2, 140 nM PHD3), 40 μM ferrous ammonium sulfate (FAS), 4 mM sodium (Na) ascorbate. The plates were incubated for 30 minutes at room temperature without rotation.
(§4) Five microliters of the VBC/anti-6His-Tb-cryptate Gold mix prepared as a 4×concentrate in dilution buffer containing 20 nM His-VBC, 1.32 nM monoclonal antibody anti-6His-Tb-cryptate Gold was then added. This step was followed immediately by the addition of 5 μL of the HIF-1α C35 substrate mix prepared as a 4×concentrate in the dilution buffer containing 120 nM biotin-labeled HIF-1α C35, 132 nM SA-D2, 4 μM 2-oxoglutarate (2-OG) to reach a final reaction volume of 20 μL.
(§5) The final assay reaction contained 50 mM HEPES, pH 7.5, 50 mM NaCl, 1 μM 2-OG, 10 μM FAS, 1 mM Na ascorbate, 0.01% Tween-20, 0.01% purified BSA, 30 nM biotin-labeled HIF-1α C35, 5 nM His-VBC, 0.33 nM monoclonal antibody anti-6His-Tb-cryptate Gold, 33 nM SA-D2 and PHD enzyme (15 nM PHD1, 5 nM PHD2, or 35 nM PHD3) with the diluted compound.
(§6) For the measurement of the IC50 of PHD inhibitor compound, reactions were incubated for 10 minutes at room temperature and then read on a Perkin Elmer EnVision (Waltham, Mass., USA) at an excitation wavelength of 340 nm and at emission wavelengths of 615 nm and 665 nm. The data represent the quotient of the signal intensity at 665 nm and 615 nm, automatically calculated by Envision Manager software (Perkin Elmer, Waltham, Mass., USA). The IC50 values (mean, standard deviation, standard error of the mean, geometric mean and 95% confidence interval) were determined using a four-parameter curve-fit using GraphPad Prism 7.0 (GraphPad, La Jolla, Calif., USA) and represent the compound concentration plotted against the calculated ratio of 665 nm and 615 nm. […]
For orientation: TR-FRET usually uses a lanthanide donor and a delayed reading to cut background.

Another assay concerns the target T2, full-length human PHD2 (Homo sapiens, UniProt Q9GZT9).
T2 construct: The PHD2 construct contained amino acids 1 to 426 of PHD2; His tag (N, cleaved yes); TEV protease cleavage site (N, cleaved yes); host or cells: Sf9 insect cells (baculovirus)
The experiment in a line: TR-FRET assay, PHD2 enzymatic IC50. As to conditions: 5 nM PHD2, 1 μM 2-OG.
Source text: as §1, §2
The full-length human PHD2 enzyme was produced with a baculovirus infected insect cell (BIIC) expression system by Beryllium (Bedford, Mass., USA). The PHD2 construct contained amino acids 1 to 426 of PHD2 (UniProt Knowledgebase[UniProtKB]/Swiss-Prot accession number Q9GZT9.1), and a His tag and a Tobacco Etch Virus (TEV) protease cleavage site at the N-terminus. The construct was expressed in Sf9 insect cells, purified by Ni-NTA column and digested with TEV protease to remove the His tag.
as §3, §4, §5
For the measurement of the IC50 of PHD inhibitor compound, reactions were incubated for 10 minutes at room temperature and then read on a Perkin Elmer EnVision (Waltham, Mass., USA) at an excitation wavelength of 340 nm and at emission wavelengths of 615 nm and 665 nm. The data represent the quotient of the signal intensity at 665 nm and 615 nm, automatically calculated by Envision Manager software (Perkin Elmer, Waltham, Mass., USA). […]

Another assay concerns the target T3, full-length human PHD3 (Homo sapiens, UniProt Q9H6Z9).
T3 construct: It was expressed in E. coli as the full-length protein; 6-His (N); purchased Active Motif 81033; host or cells: E. coli
The experiment in a line: TR-FRET assay, PHD3 enzymatic IC50. The settings on record: 35 nM PHD3, 1 μM 2-OG.
Source text: as §1, §2
Recombinant human PHD3 protein (molecular weight 31.1 kDa) was purchased from Active Motif (Carlsbad, Calif., USA). It was expressed in E. coli as the full-length protein (NCBI accession number NP_071356.1) with an N-terminal 6-His tag (catalog #81033, Lot #24417001).
as §3, §4, §5, §6

Each structure is given as a SMILES string.

The term IC50 denotes the concentration that inhibits the measured activity by half. A lower IC50 goes with inhibition by little substance.

T3 sequence (Q9H6Z9 whole entry): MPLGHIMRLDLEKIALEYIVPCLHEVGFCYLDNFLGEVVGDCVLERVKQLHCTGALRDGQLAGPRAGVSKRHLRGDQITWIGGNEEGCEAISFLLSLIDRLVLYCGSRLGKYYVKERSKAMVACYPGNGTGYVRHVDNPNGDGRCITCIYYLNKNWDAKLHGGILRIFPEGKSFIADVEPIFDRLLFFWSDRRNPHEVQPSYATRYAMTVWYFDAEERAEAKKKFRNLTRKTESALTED
T2 sequence (Q9GZT9 whole entry, the tested form may be a part): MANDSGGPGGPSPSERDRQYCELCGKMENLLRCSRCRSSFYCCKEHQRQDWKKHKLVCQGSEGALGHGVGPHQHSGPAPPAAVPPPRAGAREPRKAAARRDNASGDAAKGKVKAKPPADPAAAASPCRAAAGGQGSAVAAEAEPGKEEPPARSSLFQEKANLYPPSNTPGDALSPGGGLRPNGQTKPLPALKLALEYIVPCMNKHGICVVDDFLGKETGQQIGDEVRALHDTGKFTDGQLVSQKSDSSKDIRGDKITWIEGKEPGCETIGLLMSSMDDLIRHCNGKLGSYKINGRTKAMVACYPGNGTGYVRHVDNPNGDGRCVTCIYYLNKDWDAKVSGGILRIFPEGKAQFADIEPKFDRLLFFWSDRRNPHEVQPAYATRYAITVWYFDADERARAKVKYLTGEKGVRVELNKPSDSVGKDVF
T1 sequence (Q96KS0 whole entry): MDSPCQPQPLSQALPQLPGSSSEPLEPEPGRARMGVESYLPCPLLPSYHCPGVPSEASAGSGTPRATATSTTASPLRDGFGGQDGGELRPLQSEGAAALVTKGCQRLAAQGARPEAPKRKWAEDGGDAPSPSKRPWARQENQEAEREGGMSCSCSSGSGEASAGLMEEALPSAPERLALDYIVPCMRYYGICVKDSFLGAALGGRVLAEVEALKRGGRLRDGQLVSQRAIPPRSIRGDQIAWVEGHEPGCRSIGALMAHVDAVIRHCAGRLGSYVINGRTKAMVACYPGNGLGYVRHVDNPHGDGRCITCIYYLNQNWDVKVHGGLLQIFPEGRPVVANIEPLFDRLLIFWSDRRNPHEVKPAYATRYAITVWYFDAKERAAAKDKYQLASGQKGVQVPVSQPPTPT

On to `COc1cc(-c2cnn(-c3ccc(S(C)(=O)=O)cn3)c2O)ccn1` [Compound 8, 4-(2-methoxypyridin-4-yl)-1-(5-(methylsulfonyl)pyridin-2-yl)-1H-pyrazol-5-ol], for which the values for the IC50 against full-length human PHD1, at full-length human PHD2 and against full-length human PHD3 were less than 100 nM, less than 100 nM and 100 to 1000 nM, respectively.

As for `CS(=O)(=O)c1ccc(-n2ncc(-c3ccc(Br)cc3)c2O)nc1` [Compound 9, 4-(4-bromophenyl)-1-(5-(methylsulfonyl)pyridin-2-yl)-1H-pyrazol-5-ol], the IC50 against full-length human PHD1 is less than 100 nM; against full-length human PHD2 it was less than 100 nM; on full-length human PHD3, 100 to 1000 nM.

As for `N#Cc1ccc(-c2cnn(-c3ccc(-n4cccn4)cn3)c2O)cc1` [Compound 10, 4-(1-(5-(1H-pyrazol-1-yl)pyridin-2-yl)-5-hydroxy-1H-pyrazol-4-yl)benzonitrile], the values for the IC50 at full-length human PHD1, against full-length human PHD2 and at full-length human PHD3 were less than 100 nM, less than 100 nM and 100 to 1000 nM, respectively.

Take `N#Cc1ccc(-c2cnn(-c3ccc(-c4ncco4)cn3)c2O)cc1` [Compound 11, 4-(5-hydroxy-1-(5-(oxazol-2-yl)pyridin-2-yl)-1H-pyrazol-4-yl)benzonitrile]: the IC50 was less than 100 nM against full-length human PHD1, less than 100 nM against full-length human PHD2 and 100 to 1000 nM on full-length human PHD3.

`N#Cc1ccc(-c2cnn(-c3ccc(-c4nccs4)cn3)c2O)cc1` [Compound 12, 4-(5-hydroxy-1-(5-(thiazol-2-yl)pyridin-2-yl)-1H-pyrazol-4-yl)benzonitrile]: the IC50 against full-length human PHD1, against full-length human PHD2 and against full-length human PHD3 was less than 100 nM in each case.

Take `N#Cc1ccc(-c2cnn(-c3ccc(N4CCCC4=O)cn3)c2O)cc1` [Compound 15, 4-(5-hydroxy-1-(5-(2-oxopyrrolidin-1-yl)pyridin-2-yl)-1H-pyrazol-4-yl)benzonitrile]: the half-inhibitory concentration (IC50) on full-length human PHD1, at full-length human PHD2 and at full-length human PHD3 was less than 100 nM throughout.

For `N#Cc1ccc(-c2cnn(-c3ccc(F)cn3)c2O)cc1` [Compound 17, 4-(1-(5-fluoropyridin-2-yl)-5-hydroxy-1H-pyrazol-4-yl)benzonitrile], the IC50 against full-length human PHD1 was less than 100 nM; against full-length human PHD2, less than 100 nM; against full-length human PHD3, 100 to 1000 nM.

Consider `CS(=O)(=O)c1ccc(-n2ncc(-c3ccc(Cl)cc3)c2O)nc1` [Compound 19, 4-(4-chlorophenyl)-1-(5-(methylsulfonyl)pyridin-2-yl)-1H-pyrazol-5-ol], for which the results for the 50% inhibitory concentration (IC50) against full-length human PHD1, against full-length human PHD2 and at full-length human PHD3 were less than 100 nM, less than 100 nM and 100 to 1000 nM, respectively.

Take `CS(=O)(=O)c1ccc(-n2ncc(-c3ccc(F)cc3)c2O)nc1` [Compound 20, 4-(4-fluorophenyl)-1-(5-(methylsulfonyl)pyridin-2-yl)-1H-pyrazol-5-ol]: the half-maximal inhibitory concentration (IC50) was less than 100 nM on full-length human PHD1, less than 100 nM against full-length human PHD2 and not below 10000 nM at full-length human PHD3.

Regarding `N#Cc1ccc(-c2cnn(-c3ccc(NC(=O)C4CC4)cn3)c2O)cc1` [Compound 22, N-(6-(4-(4-cyanophenyl)-5-hydroxy-1H-pyrazol-1-yl)pyridin-3-yl)-cyclopropanecarboxamide], the concentration for half-maximal inhibition (IC50) against full-length human PHD1 is less than 100 nM; on full-length human PHD2, less than 100 nM; against full-length human PHD3 it was 100 to 1000 nM.

Turning to `CCC(=O)Nc1ccc(-n2ncc(-c3ccc(C#N)cc3)c2O)nc1` [Compound 23, N-(6-(4-(4-cyanophenyl)-5-hydroxy-1H-pyrazol-1-yl)pyridin-3-yl)propionamide], the half-inhibitory concentration (IC50) at full-length human PHD1, against full-length human PHD2 and against full-length human PHD3 was less than 100 nM throughout.

As for `CS(=O)(=O)Nc1ccc(-n2ncc(-c3ccc(C#N)cc3)c2O)nc1` [Compound 24, N-(6-(4-(4-cyanophenyl)-5-hydroxy-1H-pyrazol-1-yl)pyridin-3-yl)methanesulfonamide], the IC50 at full-length human PHD1, at full-length human PHD2 and on full-length human PHD3 was less than 100 nM throughout.

Regarding `CCS(=O)(=O)Nc1ccc(-n2ncc(-c3ccc(C#N)cc3)c2O)nc1` [Compound 25, N-(6-(4-(4-cyanophenyl)-5-hydroxy-1H-pyrazol-1-yl)pyridin-3-yl)ethanesulfonamide], the half-inhibitory concentration (IC50) against full-length human PHD1, at full-length human PHD2 and on full-length human PHD3 was less than 100 nM in each case.

The values above are taken from patent US20230212138A1, “PHD INHIBITOR COMPOUNDS, COMPOSITIONS, AND THEIR USE” (Akebia Therapeutics, Inc., priority 2020, published 2023).
